# US20050032873A1, “3-Amino chroman and 2-amino tetralin derivatives” (Wyeth, priority 2003, published 2005)
# pEC50, pIC50, pKi: −log10 of the molar value. Read-outs that look alike come from different tables or passages of the source.
# Key:
# [1] = target: T1, cloned human 5-HT1A receptors (Homo sapiens, UniProt P08908); assay: 35S-GTPγS binding assay, 5-HT1A function; format: biochemical; conditions: for pEC50: agonist potency; for pIC50: antagonist potency, reversal of 8-OH-DPAT, read-out: 5-HT1A Function GTPγS IC50
# T1 construct: expressed in transfected cells
# T1 sequence (P08908 1-422): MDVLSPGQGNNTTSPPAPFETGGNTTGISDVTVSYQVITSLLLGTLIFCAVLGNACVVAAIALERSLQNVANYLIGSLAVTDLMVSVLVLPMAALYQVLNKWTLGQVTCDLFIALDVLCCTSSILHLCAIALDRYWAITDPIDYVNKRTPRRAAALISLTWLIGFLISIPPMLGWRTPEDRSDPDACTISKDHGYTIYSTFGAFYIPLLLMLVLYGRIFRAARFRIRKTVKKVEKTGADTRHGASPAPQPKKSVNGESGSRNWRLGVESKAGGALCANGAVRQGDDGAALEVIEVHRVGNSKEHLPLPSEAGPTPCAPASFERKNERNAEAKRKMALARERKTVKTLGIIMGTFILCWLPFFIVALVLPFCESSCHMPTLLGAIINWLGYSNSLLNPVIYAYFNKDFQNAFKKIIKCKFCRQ
# Text: (§1) The agonist or antagonist activity at 5-HT1A receptors was established by using two different assays. […] Agonists produce an increase in binding whereas antagonists produce no increase but rather reverse the effects of the standard agonist 8-OH-DPAT. The test compound's maximum stimulatory effect is represented as the Emax, while its potency is defined by the EC50. The test compound's maximum inhibitory effect is represented as the Imax, while its potency is defined by the IC50. The second assay measured cAMP accumulation upon binding of the ligand to the 5-HT1A receptor. […] The test compound's maximum stimulatory or inhibitory effect is represented as the Emax while its potency is defined by either IC50 for an antagonist or EC50 for an agonist. [^3H]-8-OH-DPAT was used to determine maximum agonist or antagonist response in both functional assays.
# serotonin transporter = target: T2, serotonin transporter (Rattus norvegicus, UniProt P31652); assay: 5-HT transporter affinity: displacement of 3H-paroxetine from male rat cortical membranes; format: binding; conditions: displacement of 3H-paroxetine; male rat cortical membranes; read-out: 5-HT Transporter Affinity Ki
# T2 construct: displace ^3H-paroxetine from male rat cortical membranes; from tissue; host or cells: male rat cortical membranes
# T2 sequence (P31652 whole entry): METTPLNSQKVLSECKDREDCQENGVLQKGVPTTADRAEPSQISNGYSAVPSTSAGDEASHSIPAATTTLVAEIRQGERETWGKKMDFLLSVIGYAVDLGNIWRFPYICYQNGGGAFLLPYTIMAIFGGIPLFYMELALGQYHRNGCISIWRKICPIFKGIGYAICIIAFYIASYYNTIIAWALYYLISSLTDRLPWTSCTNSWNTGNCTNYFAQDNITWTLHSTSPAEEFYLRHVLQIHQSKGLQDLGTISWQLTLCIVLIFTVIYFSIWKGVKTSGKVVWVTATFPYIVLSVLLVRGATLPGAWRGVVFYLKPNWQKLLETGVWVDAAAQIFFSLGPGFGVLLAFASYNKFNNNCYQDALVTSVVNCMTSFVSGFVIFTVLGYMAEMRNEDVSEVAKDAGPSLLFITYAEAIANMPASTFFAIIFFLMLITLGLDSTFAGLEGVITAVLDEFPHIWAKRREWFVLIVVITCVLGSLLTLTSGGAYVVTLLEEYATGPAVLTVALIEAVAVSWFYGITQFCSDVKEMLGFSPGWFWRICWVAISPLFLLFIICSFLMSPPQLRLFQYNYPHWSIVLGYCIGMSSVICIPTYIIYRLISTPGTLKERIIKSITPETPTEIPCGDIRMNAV
# 5-HT1A receptor [2] = target: T3, 5-HT1A receptor (Homo sapiens, UniProt P08908); assay: 5-HT1A receptor affinity: displacement of [3H] 8-OH-DPAT; format: binding; parameters: expressed in transfected cells; conditions: for pKi: displacement of [3H] 8-OH-DPAT, CHO cells stably transfected with human 5-HT1A receptors, read-out: 5-HT1A Receptor Affinity Ki; for inhibition at 1 µM: read-out: 5-HT1A Receptor Affinity, % @ 1 μM
# T3 sequence (P08908 1-422): T1 sequence (P08908 1-422)
# 5-HT1A receptor [3] = target: T3, 5-HT1A receptor; assay: cAMP accumulation assay, 5-HT1A function; format: cell-based; conditions: for Emax / 5-HT1A Function cAMP (Emax): in brackets after EC50 or IC50; for Emax: read-out: 5-HT1A Function cAMP (Emax); for pEC50: cells marked EC50 (agonist)
# Text: as §1
# [4] = maximum stimulatory effect, in brackets after EC50, read-out: 5-HT1A Function GTPγS (Emax)
# [5] = maximum inhibitory effect, in brackets after IC50, read-out: 5-HT1A Function GTPγS (Imax)
# [6] = maximum inhibitory effect, in brackets after IC50
pKi (serotonin transporter),pKi (5-HT1A receptor [2]),inhibition at 1 µM (5-HT1A receptor [2]),SMILES,other results
7.36,7.41,–,"NC(=O)c1cccc2c1C[C@@H](NCCCc1c[nH]c3ccc(F)cc13)CO2 [Compound 133b, (3R)-3-{[3-(5-fluoro-1H-indol-3-yl)propyl]amino}chromane-5-carboxamide]","pEC50 [1]: 6.00; Emax [1, 4]: 83%"
6.82,–,–,"CCCN(C(C)CCc1c[nH]c2ccc(F)cc12)C1COc2c(F)ccc(C(N)=O)c2C1 (single isomer, unassigned) [Compound 12d, 8-fluoro-3-[[3-(5-fluoro-1H-indol-3-yl)-1-methylpropyl](propyl)amino]-3,4-dihydro-2H-chromene-5-carboxamide]","pIC50 [1]: 5.22; 5-HT1A Function GTPγS (Imax) [1, 6]: 13%"
6.66,7.05,–,"CC(CCc1c[nH]c2c(F)cc(F)cc12)N(CC1CC1)C1COc2c(F)ccc(C(N)=O)c2C1 (single isomer, unassigned) [Compound 154b, 3-{(cyclopropylmethyl)[3-(5,7-difluoro-1H-indol-3-yl)-1-methylpropyl]amino}-8-fluorochromane-5-carboxamide]",–
6.95,–,–,"CCCN(C(C)CCc1c[nH]c2ccc(C#N)cc12)C1COc2c(F)ccc(C(N)=O)c2C1 (single isomer, unassigned) [Compound 13d, 3-[[3-(5-cyano-1H-indol-3-yl)-1-methylpropyl](propyl)amino]-8-fluoro-3,4-dihydro-2H-chromene-5-carboxamide]",–

# The remaining lines, values behind:
SMILES,pKi (serotonin transporter),pKi (5-HT1A receptor [2]),inhibition at 1 µM (5-HT1A receptor [2]),other results
"CNC(=O)c1ccc(F)c2c1CC(NCCc1c[nH]c3ccc(F)cc13)CO2 (centres unmarked) [Compound 84, 8-fluoro-3-{[2-(5-fluoro-1H-indol-3-yl)ethyl]amino}-N-methylchromane-5-carboxamide]",7.08,–,0%,–
"NC(=O)c1ccc(F)c2c1CC(NCCCc1c[nH]c3ccc(F)cc13)CO2 (single isomer, unassigned; (-)) [Compound 1b, (−)-8-fluoro-3-{[3-(5-fluoro-1H-indol-3-yl)propyl]amino}chromane-5-carboxamide]",7.12,–,47%,–
"O=C(NCC1CC1)c1ccc(F)c2c1CC(N(CCCc1c[nH]c3ccc(F)cc13)C1CCC1)CO2 (centres unmarked) [Compound 68, 3-{cyclobutyl[3-(5-fluoro-1H-indol-3-yl)propyl]amino}-N-(cyclopropylmethyl)-8-fluorochromane-5-carboxamide]",8.36,6.79,–,"pIC50 [1]: 5.89; Emax [1, 5]: 50%"
"O=C(Nc1ccccc1)c1ccc(F)c2c1CC(N(CCCc1c[nH]c3ccc(F)cc13)C1CCC1)CO2 (centres unmarked) [Compound 70, 3-{cyclobutyl[3-(5-fluoro-1H-indol-3-yl)propyl]amino}-8-fluoro-N-phenylchromane-5-carboxamide]",7.43,–,36%,"pEC50 [1]: 5.74; Emax [1, 4]: 22%"
"NC(=O)c1ccc(F)c2c1OCC(N(CCCCc1c[nH]c3ccc(F)cc13)C1CCC1)C2 (centres unmarked) [Compound 126, 3-{cyclobutyl[4-(5-fluoro-1H-indol-3-yl)butyl]amino}-5-fluorochromane-8-carboxamide]",7.77,–,0%,–
"NC(=O)c1ccc(F)c2c1CC(N(CCCc1c[nH]c3ccc(F)cc13)C1CCC1)CO2 (centres unmarked) [Compound 4, 3-{cyclobutyl[3-(5-fluoro-1H-indol-3-yl)propyl]amino}-8-fluorochromane-5-carboxamide]",8.59,–,–,Emax (5-HT1A receptor [3]): 0%
"NC(=O)c1ccc(F)c2c1CC(N(CCCCn1ccc3c(F)cccc31)C1CCC1)CO2 (centres unmarked) [Compound 204, 3-{Cyclobutyl[4-(4-fluoro-1H-indol-1-yl)butyl]amino}-8-fluorochromane-5-carboxamide]",6.54,7.76,–,–
"NC(=O)c1ccc(F)c2c1CC(NCCCn1ccc3ccccc31)CO2 (centres unmarked) [Compound 184, 8-Fluoro-3-{[3-(1H-indol-1-yl)propyl]amino}chromane-5-carboxamide]",6.21,–,46%,–
"NC(=O)c1ccc(F)c2c1CC(N(CCCc1c[nH]c3ccc(F)cc13)CC1CC1)CO2 (single isomer, unassigned; (-)) [Compound 5a, (−)-3-{(cyclopropylmethyl)[3-(5-fluoro-1H-indol-3-yl)propyl]amino}-8-fluorochromane-5-carboxamide]",8.39,–,–,"Emax [1, 5]: 100%; 5-HT1A Function cAMP (Emax) (5-HT1A receptor [3]): 0%"
"NC(=O)c1ccc(F)c2c1CC(N(CCCc1c[nH]c3ccc(F)cc13)CC1CC1)CO2 (single isomer, unassigned; (+)) [Compound 5b, (+)-3-{(cyclopropylmethyl)[3-(5-fluoro-1H-indol-3-yl)propyl]amino}-8-fluorochromane-5-carboxamide]",8.43,–,–,"5-HT1A Function GTPγS (Imax) [1, 6]: 82%; Emax [1, 4]: 18%; 5-HT1A Function cAMP (Emax) (5-HT1A receptor [3]): 69%"
"NC(=O)c1ccc(F)c2c1OCC(N(CCCc1c[nH]c3ccc(F)cc13)C1CCC1)C2 (centres unmarked) [Compound 122, 3-{cyclobutyl[3-(5-fluoro-1H-indol-3-yl)propyl]amino}-5-fluorochromane-8-carboxamide]",7.15,–,0%,–
"NC(=O)c1ccc(F)c2c1CC(N(CCCc1c[nH]c3ccc(F)cc13)C1CCC1)CO2 (single isomer, unassigned; (+)) [Compound 4a, (+)-3-{cyclobutyl[3-(5-fluoro-1H-indol-3-yl)propyl]amino}-8-fluorochromane-5-carboxamide]",8.31,–,–,Emax (5-HT1A receptor [3]): 0%
"NC(=O)c1ccc(F)c2c1CC(N(CCCc1c[nH]c3ccc(F)cc13)CC1CC1)CO2 (centres unmarked) [Compound 5, 3-{(cyclopropylmethyl)[3-(5-fluoro-1H-indol-3-yl)propyl]amino}-8-fluorochromane-5-carboxamide]",8.44,–,–,"Emax [1, 5]: 88.2%; Emax [1, 4]: 28.4%; Emax (5-HT1A receptor [3]): 0%"
"NC(=O)c1ccc(F)c2c1CC(NCCCc1c[nH]c3c(Cl)cccc13)CO2 (centres unmarked) [Compound 109, 3-{[3-(7-chloro-1H-indol-3-yl)propyl]amino}-8-fluorochromane-5-carboxamide]",7.16,7.56,–,–
"NC(=O)c1ccc(F)c2c1CC(N(CCCc1c[nH]c3ccc(F)cc13)C1CCC1)CO2 (single isomer, unassigned; (-)) [Compound 4b, (−)-3-{cyclobutyl[3-(5-fluoro-1H-indol-3-yl)propyl]amino}-8-fluorochromane-5-carboxamide]",8.82,–,–,5-HT1A Function cAMP (Emax) (5-HT1A receptor [3]): 0%
"COc1ccc2[nH]cc(CCCNC3COc4c(F)ccc(C(N)=O)c4C3)c2c1 (centres unmarked) [Compound 104, 8-fluoro-3-{[3-(5-methoxy-1H-indol-3-yl)propyl]amino}chromane-5-carboxamide]",5.39,7.78,–,–
"NC(=O)c1ccc(F)c2c1CC(N(CCCc1c[nH]c3ccc(F)cc13)Cc1ccccc1)CO2 (centres unmarked) [Compound 74, 3-{benzyl[3-(5-fluoro-1H-indol-3-yl)propyl]amino}-8-fluorochromane-5-carboxamide]",6.19,–,20%,–
"O=C(NCc1ccccc1)c1ccc(F)c2c1CC(N(CCCc1c[nH]c3ccc(F)cc13)C1CCC1)CO2 (centres unmarked) [Compound 69, N-benzyl-3-{cyclobutyl[3-(5-fluoro-1H-indol-3-yl)propyl]amino}-8-fluorochromane-5-carboxamide]",7.82,–,3%,–
"CCCN(CCCCn1ccc2cccc(F)c21)C1COc2c(F)ccc(C(N)=O)c2C1 (centres unmarked) [Compound 190, 8-Fluoro-3-[[4-(7-fluoro-1H-indol-1-yl)butyl](propyl)amino]chromane-5-carboxamide]",–,7.78,–,"pIC50 [1]: 5.44; Emax [1, 5]: 84%; pEC50 (5-HT1A receptor [3]): 6.49; Emax (5-HT1A receptor [3]): 59%"
"NC(=O)c1ccc(F)c2c1OCC(N(CCCc1c[nH]c3c(F)cc(F)cc13)C1CCC1)C2 (centres unmarked) [Compound 131, 3-{cyclobutyl[3-(5,7-difluoro-1H-indol-3-yl)propyl]amino}-5-fluorochromane-8-carboxamide]",6.79,–,49%,–
"COc1cccc2c1CC(N(CCCCc1c[nH]c3ccc(F)cc13)C1CCC1)CO2 (centres unmarked) [Compound 36, N-cyclobutyl-N-[4-(5-fluoro-1H-indol-3-yl)butyl]-N-(5-methoxy-3,4-dihydro-2H-chromen-3-yl)amine]",–,7.93,–,"pIC50 [1]: 6.18; Emax [1, 5]: 56%; pEC50 (5-HT1A receptor [3]): 7.91; Emax (5-HT1A receptor [3]): 61%"
"COC(=O)c1ccc(F)c2c1CC(NCCCc1c[nH]c3ccc(F)cc13)CO2 (centres unmarked) [Compound 54, Methyl 8-fluoro-3-{[3-(5-fluoro-1H-indol-3-yl)propyl]amino}chromane-5-carboxylate]",–,–,–,"5-HT1A Function GTPγS (Emax) ([1]; maximum stimulatory effect, in brackets after EC50): 85%"
